From US8759535B2, “Substituted fused imidazole derivatives, pharmaceutical compositions, and methods of use thereof” (High Point Pharmaceuticals, LLC, priority 2010, dated 2014)
Counter-ions that a name gives are not always drawn.

System: HMOX1
Assay: HMOX1 Protein Assay (immunostaining of HO-1 in NHLF cells, GE InCell 1000)
Assay type: cell-based
Conditions: Homo sapiens, fold change above DMSO treated cells, 16 h; for fold induction at 5 µM: 5 μM compound; for fold induction at 3 µM: 3 μM compound (asterisk)
Method in brief: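 NHLF cells seeded overnight in FGM-2, then exposed to compound or DMSO vehicle for 16 h, fixed, and immunostained for HO-1 with Hoechst nuclear counterstain; imaged on InCell 1000. Values are fold change over DMSO-treated cells, generally at 5 μM (0.8% DMSO), with asterisked entries at 3 μM.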

Row | SMILES | fold induction at 5 µM | fold induction at 3 µM
1 | COCCNC(=O)c1ccc2c(c1)nc(Nc1nc3ccc(Cl)cc3s1)n2C [Example 31, 2-(6-Chloro-benzothiazol-2-ylamino)-1-methyl-1H-benzoimidazole-5-carboxylic acid (2-methoxy-ethyl)-amide] | 23.6 | –
2 | Cn1c(Nc2nc3ccc(OC(F)(F)F)cc3s2)nc2cc(C(=O)NCCOCCF)ccc21 [Example 47, 1-Methyl-2-(6-trifluoromethoxy-benzothiazol-2-ylamino)-1H-benzoimidazole-5-carboxylic acid [2-(2-fluoro-ethoxy)-ethyl]-amide] | 11.3 | –
3 | CN1CCN(CCCNC(=O)c2ccc3c(c2)nc(Nc2nc4ccc(Cl)cc4s2)n3C)CC1 [Example 356, 2-(6-Chloro-benzothiazol-2-ylamino)-1-methyl-1H-benzoimidazole-5-carboxylic acid [3-(4-methyl-piperazin-1-yl)-propyl]-amide] | – | 19
4 | Cn1c(Nc2nc3ccc(OC(F)(F)F)cc3s2)nc2cc(C(=O)NCC(=O)N3CCC(C(N)=O)CC3)ccc21 [Example 451, 1-Methyl-2-(6-trifluoromethoxy-benzothiazol-2-ylamino)-1H-benzoimidazole-5-carboxylic acid [2-(4-carbamoyl-piperidin-1-yl)-2-oxo-ethyl]-amide] | 51.3 | –
5 | CCn1c(Nc2nc3ccc(C(F)(F)F)cc3s2)nc2cc(C(=O)NCCOC)ccc21 [Example 182, 1-Ethyl-2-(6-trifluoromethyl-benzothiazol-2-ylamino)-1H-benzoimidazole-5-carboxylic acid (2-methoxy-ethyl)-amide] | 13 | –
6 | CN(C)CC(=O)N1CCC[C@H](NC(=O)c2ccc3c(c2)nc(Nc2nc4ccc(Cl)cc4s2)n3C)C1 [Example 312, 2-(6-Chloro-benzothiazol-2-ylamino)-1-methyl-1H-benzoimidazole-5-carboxylic acid [(S)-1-(2-dimethylamino-acetyl)-piperidin-3-yl]-amide] | 68.8 | –
7 | CC(O)COCCNC(=O)c1ccc2c(c1)nc(Nc1nc3ccc(OC(F)(F)F)cc3s1)n2C (stereo not shown) [Example 244, 1-Methyl-2-(6-trifluoromethoxy-benzothiazol-2-ylamino)-1H-benzoimidazole-5-carboxylic acid [2-(2-hydroxy-propoxy)-ethyl]-amide] | 28 | –
8 | COCCNC(=O)c1ccc2c(c1)nc(Nc1nc3ccc(OC(F)(F)F)cc3s1)n2CCOC [Example 168, 1-(2-Methoxy-ethyl)-2-(6-trifluoromethoxy-benzothiazol-2-ylamino)-1H-benzoimidazole-5-carboxylic acid (2-methoxy-ethyl)-amide] | 21.9 | –
9 | Cn1c(Nc2nc3ccc(Cl)cc3s2)nc2cc(C(=O)NCCCCN)ccc21 [Example 347, 2-(6-Chloro-benzothiazol-2-ylamino)-1-methyl-1H-benzoimidazole-5-carboxylic acid (4-amino-butyl)-amide hydrochloride] | – | 15.3
10 | COC(=O)c1ccc2c(c1)nc(Nc1nc3cc(F)ccc3s1)n2C [Example 111, 2-(5-Fluoro-benzothiazol-2-ylamino)-1-methyl-1H-benzoimidazole-5-carboxylic acid methyl ester] | 17.6 | –
11 | CCNC(=O)c1ccc2c(c1)nc(Nc1nc3ccc(OC(F)(F)F)cc3s1)n2CC(C)C [Example 165, 1-Isobutyl-2-(6-trifluoromethoxy-benzothiazol-2-ylamino)-1H-benzoimidazole-5-carboxylic acid ethylamide] | 17.9 | –
12 | Cn1c(Nc2nc3ccc(OC(F)(F)F)cc3s2)nc2cc(C(=O)NCCOCCO)cnc21 [Example 238, 3-Methyl-2-(6-trifluoromethoxy-benzothiazol-2-ylamino)-3H-imidazo[4,5-b]pyridine-6-carboxylic acid [2-(2-hydroxy-ethoxy)-ethyl]-amide] | 33 | –
13 | COC(=O)c1ccc2c(c1)nc(Nc1nc3ccc(F)cc3s1)n2C [Example 112, 2-(6-Fluoro-benzothiazol-2-ylamino)-1-methyl-1H-benzoimidazole-5-carboxylic acid methyl ester] | 17.5 | –
